Data from patent publication US11427553B2, “Dihydrooxadiazinones” (Bayer Aktiengesellschaft, priority 2017, dated 2022).

Key:
HeLa cells = test: Assay 1 cell proliferation measurement (CTG, 72 h), HeLa; type: cell-based, human; conditions: Homo sapiens, HeLa; Assay 1, 72 h, Cell Titer Glo; read-out: HeLa IC50 [nM] (Cervical cancer)
Outline: (§1)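 Growth inhibition relative to a 0 h baseline plate and 0.3% DMSO control, with IC50 fitted by 4-parameter curve. Compound exposure lasted 72 h at 37 °C across a 2.5-fold, 10-step series starting generally at 100 nM final.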

SK-MEL-3 cells = test: Assay 1 cell proliferation measurement (CTG, 72 h), SK-MEL-3; type: cell-based, human; conditions: Homo sapiens, SK-MEL3; Assay 1, 72 h, Cell Titer Glo; read-out: SK-MEL-3 IC50 [nM] (melanoma)
Outline: as §1

human full length PDE3A = human full length PDE3A (Homo sapiens (Human), UniProt Q14432); test: Assay 4 PDE3A enzyme inhibition (3H-cAMP SPA); type: biochemical; conditions: Sf9 cell extract
Sequence of human full length PDE3A (Q14432 whole entry): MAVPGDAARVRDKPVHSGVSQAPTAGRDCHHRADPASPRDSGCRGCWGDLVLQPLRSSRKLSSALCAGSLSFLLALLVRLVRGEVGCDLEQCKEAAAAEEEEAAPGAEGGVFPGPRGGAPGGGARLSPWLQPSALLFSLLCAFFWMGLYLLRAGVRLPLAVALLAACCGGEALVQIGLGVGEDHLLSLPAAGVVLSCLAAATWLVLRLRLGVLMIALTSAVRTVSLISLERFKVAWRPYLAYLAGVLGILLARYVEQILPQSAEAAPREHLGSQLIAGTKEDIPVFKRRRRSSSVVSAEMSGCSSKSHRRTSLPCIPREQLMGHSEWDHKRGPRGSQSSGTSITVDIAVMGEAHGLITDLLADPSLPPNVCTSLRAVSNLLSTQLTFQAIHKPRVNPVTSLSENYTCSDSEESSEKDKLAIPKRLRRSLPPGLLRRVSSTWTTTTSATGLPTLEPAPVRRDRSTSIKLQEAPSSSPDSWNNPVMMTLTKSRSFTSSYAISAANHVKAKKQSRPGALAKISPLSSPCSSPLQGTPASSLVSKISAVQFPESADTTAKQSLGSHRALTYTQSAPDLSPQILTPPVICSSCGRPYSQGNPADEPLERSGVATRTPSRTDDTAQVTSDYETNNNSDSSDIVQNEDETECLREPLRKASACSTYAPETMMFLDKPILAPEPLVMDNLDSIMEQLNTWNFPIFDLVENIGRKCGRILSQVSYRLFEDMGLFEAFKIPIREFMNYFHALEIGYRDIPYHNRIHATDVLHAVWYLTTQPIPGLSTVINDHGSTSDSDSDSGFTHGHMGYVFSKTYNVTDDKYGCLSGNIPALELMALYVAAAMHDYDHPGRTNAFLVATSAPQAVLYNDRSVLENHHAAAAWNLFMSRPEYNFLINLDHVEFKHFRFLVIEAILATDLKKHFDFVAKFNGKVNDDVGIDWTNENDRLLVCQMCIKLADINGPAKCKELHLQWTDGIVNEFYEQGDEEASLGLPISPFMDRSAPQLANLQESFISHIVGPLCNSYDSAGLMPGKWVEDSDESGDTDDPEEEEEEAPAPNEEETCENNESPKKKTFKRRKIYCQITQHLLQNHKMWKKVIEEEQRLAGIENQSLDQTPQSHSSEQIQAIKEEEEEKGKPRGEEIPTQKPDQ
Outline: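 Enzyme: Sf9 extract with overexpressed full-length PDE3A; substrate [8-3H]cAMP, 0.025 μCi/well; 60 min, room temperature, Tris/HCl pH 7.5 buffer with MgCl2, EDTA, BSA.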

human full length PDE3B = human full length PDE3B (Homo sapiens (Human), UniProt Q13370); test: Assay 5 PDE3B enzyme inhibition (3H-cAMP SPA); type: biochemical; conditions: Sf9 cell extract
Sequence of human full length PDE3B (Q13370 whole entry): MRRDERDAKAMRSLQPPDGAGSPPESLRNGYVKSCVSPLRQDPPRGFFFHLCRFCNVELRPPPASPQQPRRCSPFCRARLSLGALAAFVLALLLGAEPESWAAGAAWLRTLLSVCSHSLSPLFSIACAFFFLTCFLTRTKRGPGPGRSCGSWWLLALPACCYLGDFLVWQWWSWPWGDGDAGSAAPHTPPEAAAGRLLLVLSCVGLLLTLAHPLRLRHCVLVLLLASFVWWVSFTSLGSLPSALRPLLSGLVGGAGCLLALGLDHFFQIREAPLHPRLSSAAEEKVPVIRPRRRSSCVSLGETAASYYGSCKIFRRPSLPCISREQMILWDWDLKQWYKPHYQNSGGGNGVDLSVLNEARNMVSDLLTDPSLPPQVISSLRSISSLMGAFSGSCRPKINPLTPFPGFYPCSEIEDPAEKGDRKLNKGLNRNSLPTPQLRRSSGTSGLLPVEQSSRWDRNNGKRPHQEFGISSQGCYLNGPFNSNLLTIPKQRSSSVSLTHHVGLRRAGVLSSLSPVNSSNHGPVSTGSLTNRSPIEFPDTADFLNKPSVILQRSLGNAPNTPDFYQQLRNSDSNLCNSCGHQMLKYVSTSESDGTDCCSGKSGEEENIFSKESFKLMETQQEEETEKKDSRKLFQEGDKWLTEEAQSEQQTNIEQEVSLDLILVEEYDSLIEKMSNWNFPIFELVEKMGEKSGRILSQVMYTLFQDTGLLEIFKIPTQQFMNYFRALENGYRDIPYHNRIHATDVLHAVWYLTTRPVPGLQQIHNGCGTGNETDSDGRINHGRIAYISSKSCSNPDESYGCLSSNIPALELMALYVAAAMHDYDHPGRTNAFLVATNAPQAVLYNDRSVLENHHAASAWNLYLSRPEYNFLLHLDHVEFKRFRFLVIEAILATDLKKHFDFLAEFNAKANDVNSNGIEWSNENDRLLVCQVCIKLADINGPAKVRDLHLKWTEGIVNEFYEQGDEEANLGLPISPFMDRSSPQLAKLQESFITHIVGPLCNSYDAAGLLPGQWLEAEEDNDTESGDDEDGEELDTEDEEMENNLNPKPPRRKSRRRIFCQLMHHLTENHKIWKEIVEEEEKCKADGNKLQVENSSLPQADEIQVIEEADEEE
Outline: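 Compounds in DMSO are mixed with diluted PDE3B extract from Sf9 cells, and reactions start on adding tritiated cAMP. After 60 min at room temperature, yttrium scintillation proximity beads terminate hydrolysis and signal is counted; IC50 values come from sigmoidal dose-response curves.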

O=C1NN=C(c2ccc(-c3cnsc3)c(C(F)(F)F)c2)CO1 [Example 49, 5-[4-(1,2-Thiazol-4-yl)-3-(trifluoromethyl)phenyl]-3,6-dihydro-2H-1,3,4-oxadiazin-2-one]
IC50 (HeLa cells): 6 nM | IC50 (SK-MEL-3 cells): 13 nM | IC50 (human full length PDE3A): 230 nM | IC50 (human full length PDE3B): 190 nM

Cn1c(C#N)ccc1-c1ccc(C2=NNC(=O)OC2)cc1C(F)(F)F [Example 50, 1-Methyl-5-[4-(2-oxo-3,6-dihydro-2H-1,3,4-oxadiazin-5-yl)-2-(trifluoromethyl)phenyl]-1H-pyrrole-2-carbonitrile]
IC50 (HeLa cells): 81 nM | IC50 (SK-MEL-3 cells): 19800 nM | IC50 (human full length PDE3A): 260 nM | IC50 (human full length PDE3B): 210 nM

O=C1NN=C(c2ccc(-c3ccc(C(F)(F)F)cc3)c(C(F)(F)F)c2)CO1 [Example 51, 5-[2,4′-Bis(trifluoromethyl)biphenyl-4-yl]-3,6-dihydro-2H-1,3,4-oxadiazin-2-one]
IC50 (HeLa cells): 30 nM | IC50 (SK-MEL-3 cells): 49 nM | IC50 (human full length PDE3A): > 1000 nM | IC50 (human full length PDE3B): > 1000 nM

Cc1nn(C)cc1-c1ccc(C2=NNC(=O)OC2)cc1C(F)(F)F [Example 52, 5-[4-(1,3-Dimethyl-1H-pyrazol-4-yl)-3-(trifluoromethyl)phenyl]-3,6-dihydro-2H-1,3,4-oxadiazin-2-one]
IC50 (HeLa cells): 48 nM | IC50 (SK-MEL-3 cells): > 100 nM | IC50 (human full length PDE3A): 65 nM | IC50 (human full length PDE3B): 30 nM

COc1nc(C)ccc1-c1ccc(C2=NNC(=O)OC2)cc1C(F)(F)F [Example 53, 5-[4-(2-Methoxy-6-methylpyridin-3-yl)-3-(trifluoromethyl)phenyl]-3,6-dihydro-2H-1,3,4-oxadiazin-2-one]
IC50 (HeLa cells): 36 nM | IC50 (SK-MEL-3 cells): 13000 nM | IC50 (human full length PDE3A): 580 nM | IC50 (human full length PDE3B): 390 nM

Cc1ncc(-c2ccc(C3=NNC(=O)OC3)cc2C(F)(F)F)s1 [Example 54, 5-[4-(2-Methyl-1,3-thiazol-5-yl)-3-(trifluoromethyl)phenyl]-3,6-dihydro-2H-1,3,4-oxadiazin-2-one]
IC50 (HeLa cells): 1 nM | IC50 (SK-MEL-3 cells): 3 nM | IC50 (human full length PDE3A): 100 nM | IC50 (human full length PDE3B): 89 nM

CNc1ccc(-c2ccc(C3=NNC(=O)OC3)cc2C(F)(F)F)cc1 [Example 55, 5-[4′-(Methylamino)-2-(trifluoromethyl)biphenyl-4-yl]-3,6-dihydro-2H-1,3,4-oxadiazin-2-one]
IC50 (HeLa cells): 7 nM | IC50 (SK-MEL-3 cells): 14 nM | IC50 (human full length PDE3A): 280 nM | IC50 (human full length PDE3B): 250 nM

Nc1cc(-c2ccc(C3=NNC(=O)OC3)cc2C(F)(F)F)ccc1F [Example 56, 5-[3′-Amino-4′-fluoro-2-(trifluoromethyl)biphenyl-4-yl]-3,6-dihydro-2H-1,3,4-oxadiazin-2-one]
IC50 (HeLa cells): 5 nM | IC50 (SK-MEL-3 cells): 10 nM | IC50 (human full length PDE3A): 180 nM | IC50 (human full length PDE3B): 80 nM

O=C1NN=C(c2ccc(-c3cc(F)c(F)c(F)c3)c(C(F)(F)F)c2)CO1 [Example 58, 5-[3′,4′,5′-Trifluoro-2-(trifluoromethyl)biphenyl-4-yl]-3,6-dihydro-2H-1,3,4-oxadiazin-2-one]
IC50 (HeLa cells): 40 nM | IC50 (SK-MEL-3 cells): 64 nM | IC50 (human full length PDE3A): 310 nM | IC50 (human full length PDE3B): 570 nM

O=C1NN=C(c2ccc(-c3cc(F)ccc3F)c(C(F)(F)F)c2)CO1 [Example 59, 5-[2′,5′-Difluoro-2-(trifluoromethyl)biphenyl-4-yl]-3,6-dihydro-2H-1,3,4-oxadiazin-2-one]
IC50 (HeLa cells): 18 nM | IC50 (SK-MEL-3 cells): 38 nM | IC50 (human full length PDE3A): 150 nM | IC50 (human full length PDE3B): 250 nM

Nc1cc(-c2ccc(C3=NNC(=O)OC3)cc2OC(F)(F)F)ccc1F [Example 60, 5-[3′-Amino-4′-fluoro-2-(trifluoromethoxy)biphenyl-4-yl]-3,6-dihydro-2H-1,3,4-oxadiazin-2-one]
IC50 (HeLa cells): 13 nM | IC50 (SK-MEL-3 cells): 20 nM | IC50 (human full length PDE3A): 270 nM | IC50 (human full length PDE3B): 510 nM

O=C1NN=C(c2ccc(-c3ccc(F)c(F)c3)c(C(F)(F)F)c2)CO1 [Example 61, 5-[3′,4′-Difluoro-2-(trifluoromethyl)biphenyl-4-yl]-3,6-dihydro-2H-1,3,4-oxadiazin-2-one]
IC50 (HeLa cells): 10 nM | IC50 (SK-MEL-3 cells): 16 nM | IC50 (human full length PDE3A): 230 nM | IC50 (human full length PDE3B): 320 nM

O=C1NN=C(c2ccc(-c3ccc4cc[nH]c4c3)c(C(F)(F)F)c2)CO1 [Example 62, 5-[4-(1H-Indol-6-yl)-3-(trifluoromethyl)phenyl]-3,6-dihydro-2H-1,3,4-oxadiazin-2-one]
IC50 (HeLa cells): 6 nM | IC50 (SK-MEL-3 cells): 14 nM | IC50 (human full length PDE3A): 85 nM | IC50 (human full length PDE3B): 180 nM

CC(C)=Cc1ccc(C2=NNC(=O)OC2)cc1C(F)(F)F [Example 63, 5-[4-(2-Methylprop-1-en-1-yl)-3-(trifluoromethyl)phenyl]-3,6-dihydro-2H-1,3,4-oxadiazin-2-one]
IC50 (HeLa cells): 1 nM | IC50 (SK-MEL-3 cells): 3 nM | IC50 (human full length PDE3A): 31 nM | IC50 (human full length PDE3B): 33 nM

O=C1NN=C(c2ccc(-c3cccc(F)c3F)c(C(F)(F)F)c2)CO1 [Example 64, 5-[2′,3′-Difluoro-2-(trifluoromethyl)biphenyl-4-yl]-3,6-dihydro-2H-1,3,4-oxadiazin-2-one]
IC50 (HeLa cells): 17 nM | IC50 (SK-MEL-3 cells): 41 nM | IC50 (human full length PDE3A): 221 nM | IC50 (human full length PDE3B): 193 nM

O=C1NN=C(c2ccc(N3CCOCC3)c(C(F)(F)F)c2)CO1 [Example 65, 5-[4-(Morpholin-4-yl)-3-(trifluoromethyl)phenyl]-3,6-dihydro-2H-1,3,4-oxadiazin-2-one]
IC50 (HeLa cells): 2 nM | IC50 (SK-MEL-3 cells): 3 nM | IC50 (human full length PDE3A): 25 nM | IC50 (human full length PDE3B): 30 nM

CCCCNc1ccc(C2=NNC(=O)OC2)cc1C(F)(F)F [Example 66, 5-[4-(Butylamino)-3-(trifluoromethyl)phenyl]-3,6-dihydro-2H-1,3,4-oxadiazin-2-one]
IC50 (HeLa cells): 2 nM | IC50 (SK-MEL-3 cells): 3 nM | IC50 (human full length PDE3A): 65 nM | IC50 (human full length PDE3B): 95 nM

CCNc1ccc(C2=NNC(=O)OC2)cc1C(F)(F)F [Example 67, 5-[4-(Ethylamino)-3-(trifluoromethyl)phenyl]-3,6-dihydro-2H-1,3,4-oxadiazin-2-one]
IC50 (HeLa cells): 3 nM | IC50 (SK-MEL-3 cells): 5 nM | IC50 (human full length PDE3A): 47 nM | IC50 (human full length PDE3B): 63 nM

Cn1cc(-c2ccc(C3=NNC(=O)OC3)cc2OC(F)(F)F)cn1 [Example 68, 5-[4-(1-Methyl-1H-pyrazol-4-yl)-3-(trifluoromethoxy)phenyl]-3,6-dihydro-2H-1,3,4-oxadiazin-2-one]
IC50 (HeLa cells): 4 nM | IC50 (SK-MEL-3 cells): 6 nM | IC50 (human full length PDE3A): 81 nM | IC50 (human full length PDE3B): 152 nM

CCCNc1ccc(C2=NNC(=O)OC2)cc1C(F)(F)F [Example 69, 5-[4-(Propylamino)-3-(trifluoromethyl)phenyl]-3,6-dihydro-2H-1,3,4-oxadiazin-2-one]
IC50 (HeLa cells): 1 nM | IC50 (SK-MEL-3 cells): 1 nM | IC50 (human full length PDE3A): 31 nM | IC50 (human full length PDE3B): 47 nM

Cc1ccc(-c2ccc(C3=NNC(=O)OC3)cc2OC(F)(F)F)cn1 [Example 70, 5-[4-(6-Methylpyridin-3-yl)-3-(trifluoromethoxy)phenyl]-3,6-dihydro-2H-1,3,4-oxadiazin-2-one]
IC50 (HeLa cells): 15 nM | IC50 (SK-MEL-3 cells): 29 nM | IC50 (human full length PDE3A): 75 nM | IC50 (human full length PDE3B): 170 nM

O=C1NN=C(c2ccc(N3CCC3)c(C(F)(F)F)c2)CO1 [Example 72, 5-[4-(Azetidin-1-yl)-3-(trifluoromethyl)phenyl]-3,6-dihydro-2H-1,3,4-oxadiazin-2-one]
IC50 (HeLa cells): 2 nM | IC50 (SK-MEL-3 cells): 5 nM | IC50 (human full length PDE3A): 74 nM | IC50 (human full length PDE3B): 180 nM

Cn1cnc2ccc(-c3ccc(C4=NNC(=O)OC4)cc3C(F)(F)F)cc21 [Example 73, 5-[4-(1-Methyl-1H-benzimidazol-6-yl)-3-(trifluoromethyl)phenyl]-3,6-dihydro-2H-1,3,4-oxadiazin-2-one]
IC50 (HeLa cells): 25 nM | IC50 (SK-MEL-3 cells): 46 nM | IC50 (human full length PDE3A): 18 nM | IC50 (human full length PDE3B): 41 nM

CCCCCNc1ccc(C2=NNC(=O)OC2)cc1C(F)(F)F [Example 74, 5-[4-(Pentylamino)-3-(trifluoromethyl)phenyl]-3,6-dihydro-2H-1,3,4-oxadiazin-2-one]
IC50 (HeLa cells): 11 nM | IC50 (SK-MEL-3 cells): 23 nM | IC50 (human full length PDE3A): 42 nM | IC50 (human full length PDE3B): 100 nM

Cn1ncc2ccc(-c3ccc(C4=NNC(=O)OC4)cc3C(F)(F)F)cc21 [Example 75, 5-[4-(1-Methyl-1H-indazol-6-yl)-3-(trifluoromethyl)phenyl]-3,6-dihydro-2H-1,3,4-oxadiazin-2-one]
IC50 (HeLa cells): 22 nM | IC50 (SK-MEL-3 cells): 44 nM | IC50 (human full length PDE3A): 31 nM | IC50 (human full length PDE3B): 78 nM

O=C1NN=C(c2ccc(-c3ccc(F)nc3)c(F)c2)CO1 [Example 77, 5-[3-Fluoro-4-(6-fluoropyridin-3-yl)phenyl]-3,6-dihydro-2H-1,3,4-oxadiazin-2-one]
IC50 (HeLa cells): 8 nM | IC50 (SK-MEL-3 cells): 16 nM | IC50 (human full length PDE3A): 33 nM | IC50 (human full length PDE3B): 83 nM

Cc1cnccc1-c1ccc(C2=NNC(=O)OC2)cc1F [Example 78, 5-[3-Fluoro-4-(3-methylpyridin-4-yl)phenyl]-3,6-dihydro-2H-1,3,4-oxadiazin-2-one]
IC50 (HeLa cells): 10 nM | IC50 (SK-MEL-3 cells): 21 nM | IC50 (human full length PDE3A): 29 nM | IC50 (human full length PDE3B): 48 nM

Cc1cc(-c2ccc(C3=NNC(=O)OC3)cc2F)ccn1 [Example 79, 5-[3-Fluoro-4-(2-methylpyridin-4-yl)phenyl]-3,6-dihydro-2H-1,3,4-oxadiazin-2-one]
IC50 (HeLa cells): 12 nM | IC50 (SK-MEL-3 cells): 25 nM | IC50 (human full length PDE3A): 29 nM | IC50 (human full length PDE3B): 71 nM

Nc1ccc(-c2ccc(C3=NNC(=O)OC3)cc2F)cc1 [Example 80, 5-(4′-Amino-2-fluorobiphenyl-4-yl)-3,6-dihydro-2H-1,3,4-oxadiazin-2-one]
IC50 (HeLa cells): 2 nM | IC50 (SK-MEL-3 cells): 6 nM | IC50 (human full length PDE3A): 34 nM | IC50 (human full length PDE3B): 87 nM
